Patent US10851069B2, “Compositions of crystallized hydrophobic compounds and methods of making and using same” (Massachusetts Institute of Technology, priority 2016, dated 2020)

Key:
C57BL/6 mice [1] = experiment: Anti-fibrotic screening of amorphous drug formulations in 500 μm alginate capsules, 2-week intraperitoneal implantation; format: in vivo; details: conclusion; alginate hydrogel, ceramic, glass, PDMS and polystyrene beads
Source text: For screening of anti-fibrotic drug activity, amorphous drug formulations were encapsulated inside 500 μm alginate capsules. Broad-spectrum anti-inflammatory agents curcumin, dexamethasone, and rapamycin have been used for preventing fibrosis of various biomaterials, such as polymer PLGA and hydrogel alginate. A panel of lead drug candidates (e.g., compounds of Formulae I-X) including the traditional broad-spectrum anti-inflammatories as well as agents targeted to essential macrophage biology pathways (e.g., TNFα, NFκB, p110δ/PI3K, TGFβ, and CSF1R) were selected. […] SLG20 alginate hydrogel spheres with these lead drug candidates were prepared as amorphous formulations to investigate the effect of macrophage immunomodulation on foreign body response. Drugs were encapsulated in amorphous form prepared by first dissolving in an organic solvent (e.g., vehicle in FIGS. 7, 9) then by mixing with alginate aqueous solution. Efficacy in preventing fibrosis was assessed in C57BL/6 mice at 2-weeks post implantation into the intraperitoneal (IP) cavity. Drug-containing spheres (500 μl/animal) were then implanted into the intraperitoneal space of C57BL/6 mice for 14 days. After this period, spheres were harvested and studied for cellular deposition and fibrosis.
All animal protocols were approved by the MIT Committee on Animal Care, and all surgical procedures and post-operative care was supervised by MIT Division of Comparative Medicine veterinary staff. Immune-competent male non-diabetic or STZ-induced diabetic C57BL/6 mice (Jackson Laboratory, Bar Harbor, Me.) were anesthetized with 3% isoflurane in oxygen and had their abdomens shaved and sterilized using betadine and isopropanol. Preoperatively, all mice also received a 0.05 mg/kg dose of buprenorphine subcutaneously as a pre-surgical analgesic, along with 0.3 mL of 0.9% saline subcutaneously to prevent dehydration. A […] incision was made along the midline of the abdomen and the peritoneal lining was exposed using blunt dissection. […]

C57BL/6 mice [2] = experiment: Crystalline drug-loaded alginate capsules, long-term IP/SC implantation, prevention of fibrosis; format: in vivo; details: crystalline form in alginate capsules, retrieved after 1, 3 and 6 months from IP space
Source text: Lead compounds identified by screening the amorphous formulations (e.g., compounds of Formulae I-X, particularly LY215799, Dx, Curcumin, GW2580, QNZ and Ki20227) were studied for long-term release and prevention of fibrosis following encapsulation in crystalline form and implantation into the intraperitoneal (IP) space of C57BL/6 mice for long term testing. […] Drug extraction analysis by HPLC also determined that notable percentages (e.g., more than 50%) of the loaded drug remained within the retrieved capsules (FIG. 22D), particularly in the subcutaneous implanted samples. […] In contrast, capsules retrieved from the IP space 6 months post-implantation were identified with only 2-40% of the loaded drug remaining within the retrieved capsules.
All animal protocols were approved by the MIT Committee on Animal Care, and all surgical procedures and post-operative care was supervised by MIT Division of Comparative Medicine veterinary staff. Immune-competent male non-diabetic or STZ-induced diabetic C57BL/6 mice (Jackson Laboratory, Bar Harbor, Me.) were anesthetized with 3% isoflurane in oxygen and had their abdomens shaved and sterilized using betadine and isopropanol. Preoperatively, all mice also received a 0.05 mg/kg dose of buprenorphine subcutaneously as a pre-surgical analgesic, along with 0.3 mL of 0.9% saline subcutaneously to prevent dehydration. A […] incision was made along the midline of the abdomen and the peritoneal lining was exposed using blunt dissection. The peritoneal wall was then grasped with forceps and a 0.5-1 mm incision was made along the linea alba. A desired volume of spheres (all materials without islets, as well as SLG20 spheres encapsulating rat islets) were then loaded into a sterile pipette and implanted into the peritoneal cavity through the incision. The incision was then closed using 5-0 taper-tipped polydioxanone (PDS II) absorbable sutures. The skin was then closed over the incision using a wound clip and tissue glue.
At desired time points post-implantation or transplantation (with encapsulated islets), as specified in figures, mice were euthanized by CO2 administration, followed by cervical dislocation. In certain instances, 5 ml of ice cold PBS was first injected in order perform an intraperitoneal lavage to rinse out and collect free-floating intraperitoneal immune cells. An incision was then made using the forceps and scissors along the abdomen skin and peritoneal wall, and intraperitoneal lavage volumes were pipetted out into fresh 15 ml falcon tubes (each prepared with 5 ml of RPMI cell culture media). Next, a wash bottle tip was inserted into the abdominal cavity. KREBS buffer was then used to wash out all material spheres from the abdomen and into petri dishes for collection. After ensuring all the spheres were washed out or manually retrieved (if fibrosed directly to intraperitoneal tissues), they were transferred into 50 mL conical tubes for downstream processing and imaging. After intraperitoneal lavage and sphere retrieval, remaining fibrosed intraperitoneal tissues were also excised for downstream FACS and expression analyses.
For phase contrast imaging, retrieved materials were gently washed using Krebs buffer and transferred into 35 mm petri dishes for phase contrast microscopy using an Evos X1 microscope (Advanced Microscopy Group).
Immunofluorescence imaging was used to determine immune populations attached to spheres. […]

[3] = In vitro drug release from alginate capsules loaded with crystalline or amorphous formulations; format: physicochemical
Protocol: Release study was carried out in 3 different media, a normal saline-Isopropyl alcohol (10%) mixture, a phosphate buffer (pH 7.4), or for accelerated condition with phosphate buffered saline (pH 7.4) either with 0.1% w/v or 03% w/v SDS. Release study at NS+10% IPA was carried out in 2 ml medium at 37° C. Sampling was carried out by replacement of 1.5 ml of release medium by total replacement of release medium with fresh medium. […] For release in accelerated condition (PBS+SDS), the same time points were followed while 20 μl of drug loaded capsules were incubated in 2 ml release medium to achieve sink conditions. Drug concentration in samples was measured by reverse phase HPLC on C-18 column with a mobile phase or using UV calibrated system. An isocratic mode was set at a flow rate of 0.5-2 ml/min and a different wave-length of nm and 20-50 μl of samples was injected into an HPLC system (Waters, LC-Module-I) or UV analyzed. Calibration curves were prepared in concentration range of 0.05-10 μg/ml. Using prepared calibration curves, drugs concentration in different release samples were calculated.

[4] = system: inflammatory macrophage markers Sphk1, TNFα, Arg1, IL1; experiment: NanoString multiplexed gene expression analysis of retrieved capsules; format: in vivo, C57BL/6 mice; details: amorphous drug-loaded capsules, 2 weeks IP; CSF1R-targeting agents compared
Protocol: RNAs for mock-implanted (mock) controls, or for various drug-loaded 0.5 mm diameter alginate sphere-bearing mice (n=4/group) were isolated from tissue samples taken at various time points after implantation, as described. Respective RNAs were quantified, diluted to the appropriate concentration (100 ng/μl), and then 500 ng of each sample was processed according to NanoString manufacturer protocols for expression analysis via our customized multiplexed gene mouse macrophage subtyping panel. RNA levels (absolute copy numbers) were obtained following nCounter (NanoString Technologies Inc., Seattle, Wash.) quantification, and group samples were analyzed using nSolver analysis software (NanoString Technologies Inc., Seattle, Wash.).

SMILES	efficacy in inhibiting fibrosis of implanted biomaterial (C57BL/6 mice [1])	fibrosis by phase contrast imaging and confocal microscopy (C57BL/6 mice [2])	further results
COc1cc(Oc2ccnc3cc(OC)c(OC)cc23)ccc1NC(=O)NC(C)c1nccs1 (centres unmarked) [Ki20227, N-[4-[(6,7-Dimethoxy-4-quinolinyl)oxy]-2-methoxyphenyl]-N′-[1-(2-thiazolyl)ethyl]urea]	demonstrated efficacy in inhibiting fibrosis	fibrosis free	–
COc1cc(/C=C/C(=O)CC(=O)/C=C/c2ccc(O)c(OC)c2)ccc1O [Curcumin, (1E,6E)-1,7-bis (4-hydroxy-3-methoxyphenyl)-1,6-heptadiene-3,5-dione]	–	fibrosis free	drug release profile ([3]; amorphous curcumin encapsulated in alginate, in vitro up to 2 months): quicker drug release; drug release profile ([3]; crystalline curcumin encapsulated in alginate, in vitro up to 2 months): releases more slowly initially, but can be maintained for much longer periods of time; duration of long-term release (slow surface erosion) ([3]; crystalline curcumin loaded into alginate spheres): at least 2 months; drug release profile ([3]; mixed crystalline:amorphous 3:1 curcumin in alginate): both quick and extended release
Cc1cccc(-c2nn3c(c2-c2ccnc4ccc(C(N)=O)cc24)CCC3)n1 [LY215799, 4-(2-(6-methylpyridin-2-yl)-5,6-dihydro-4H-pyrrolo[1,2-b]pyrazol-3-yl)quinoline-6-carboxamide]	–	fibrosis free	–
Cc1ccc(Nc2c(C(N)=O)cnc3cc(-c4ccc(S(C)(=O)=O)cc4)ccc23)cc1C [cFMS receptor inhibitor III, 4-(3,4-Dimethylanilino)-7-(4-(methylsulfonyl)phenyl)quinoline-3-carboxamide]	demonstrated efficacy in inhibiting fibrosis	–	gene expression responses [4]: almost identical gene expression responses
Nc1ccc2ncnc(NCCc3ccc(Oc4ccccc4)cc3)c2c1 [QNZ, N4-(4-phenoxyphenethyl)quinazoline-4,6-diamine]	–	fibrosis free	–
